Measured values taken from the NIST ThermoML archive (doi:10.1021/je400683g).
Numbers after ± are expanded uncertainties.

Key:
[1] = xn = mol fraction of the nth substance listed; settings: 298.15 K, Maximal bubble pressure
[2] = refractive index (Na D-line) (dimensionless); settings: 298.15 K; 101.33 kPa; Liquid; Standard Abbe refractometry
[3] = for surface tension liquid-gas: Maximal bubble pressure; for vapor or sublimation pressure: Closed cell (Static) method

CCO [ethanol] + Cc1ccc(C)o1
surface tension liquid-gas ([1]; x1 = 1): 22.1 ± 0.26 mN/m

CCO [ethanol]
refractive index [2]: 1.36068 ± 0.00031
surface tension liquid-gas ([3]; 298.15 K): 22.1 ± 0.26 mN/m
vapor or sublimation pressure ([3]; 323.51 K, Liquid): 30.01 ± 0.08 kPa
vapor or sublimation pressure ([3]; 326.79 K, Liquid): 35.01 ± 0.09 kPa
vapor or sublimation pressure ([3]; 329.68 K, Liquid): 40.01 ± 0.1 kPa
vapor or sublimation pressure ([3]; 332.27 K, Liquid): 45.01 ± 0.1 kPa
vapor or sublimation pressure ([3]; 334.57 K, Liquid): 50 ± 0.2 kPa
vapor or sublimation pressure ([3]; 334.63 K, Liquid): 50.01 ± 0.11 kPa
vapor or sublimation pressure ([3]; 336.8 K, Liquid): 55.01 ± 0.11 kPa
vapor or sublimation pressure ([3]; 338.81 K, Liquid): 60.01 ± 0.12 kPa
vapor or sublimation pressure ([3]; 340.68 K, Liquid): 65.01 ± 0.13 kPa
vapor or sublimation pressure ([3]; 342.43 K, Liquid): 70.01 ± 0.14 kPa
vapor or sublimation pressure ([3]; 344.02 K, Liquid): 75 ± 0.34 kPa
vapor or sublimation pressure ([3]; 344.09 K, Liquid): 75.01 ± 0.14 kPa
vapor or sublimation pressure ([3]; 345.64 K, Liquid): 80.01 ± 0.15 kPa
vapor or sublimation pressure ([3]; 347.13 K, Liquid): 85.01 ± 0.16 kPa
vapor or sublimation pressure ([3]; 348.54 K, Liquid): 90.01 ± 0.16 kPa
vapor or sublimation pressure ([3]; 349.56 K, Liquid): 94 ± 0.42 kPa
vapor or sublimation pressure ([3]; 349.89 K, Liquid): 95.01 ± 0.17 kPa
vapor or sublimation pressure ([3]; 351.51 K, Liquid): 101.33 ± 0.2 kPa
vapor or sublimation pressure ([3]; 351.68 K, Liquid): 102.01 ± 0.18 kPa

Cc1ccc(C)o1 [2,5-dimethylfuran] + CCO
surface tension liquid-gas ([1]; x2 = 0): 25.1 ± 0.27 mN/m
surface tension liquid-gas ([1]; x2 = 0.049): 24.96 ± 0.27 mN/m
surface tension liquid-gas ([1]; x2 = 0.09): 24.89 ± 0.27 mN/m
surface tension liquid-gas ([1]; x2 = 0.176): 24.68 ± 0.27 mN/m
surface tension liquid-gas ([1]; x2 = 0.29): 24.38 ± 0.27 mN/m
surface tension liquid-gas ([1]; x2 = 0.386): 24.22 ± 0.27 mN/m
surface tension liquid-gas ([1]; x2 = 0.492): 23.93 ± 0.27 mN/m
surface tension liquid-gas ([1]; x2 = 0.594): 23.73 ± 0.26 mN/m
surface tension liquid-gas ([1]; x2 = 0.701): 23.4 ± 0.26 mN/m
surface tension liquid-gas ([1]; x2 = 0.804): 23.02 ± 0.26 mN/m
surface tension liquid-gas ([1]; x2 = 0.915): 22.73 ± 0.26 mN/m
surface tension liquid-gas ([1]; x2 = 0.963): 22.5 ± 0.26 mN/m

Cc1ccc(C)o1 [2,5-dimethylfuran]
refractive index [2]: 1.44012 ± 0.00032
surface tension liquid-gas ([3]; 298.15 K): 25.1 ± 0.27 mN/m
mass density ([3]; 298.15 K, 101.33 kPa, Liquid, Vibrating tube method): 896.54 ± 0.09 kg/m3
vapor or sublimation pressure ([3]; 345.2 K, Liquid): 50 ± 0.25 kPa
vapor or sublimation pressure ([3]; 357.18 K, Liquid): 75 ± 0.41 kPa
vapor or sublimation pressure ([3]; 364.36 K, Liquid): 94 ± 0.56 kPa
vapor or sublimation pressure ([3]; 366.83 K, Liquid): 101.33 ± 0.6 kPa
